Laboratory results as given in PubChem BioAssay (NCI).
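Compound exposure: 48 hours, 5 concentrations, 96-well plates. GI50 = concentration required for 50% inhibition of growth. The concentration for full growth arrest is given as TGI.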

Assays:
Assay in all cases: DTP human tumour cell line panel, 48 h
EKVX NSCLC = tested on: EKVX NSCLC
UO-31 renal = tested on: UO-31 renal
HOP-62 NSCLC = tested on: HOP-62 NSCLC
ACHN renal = tested on: ACHN renal
786-0 renal = tested on: 786-0 renal
HL-60(TB) leukemia = tested on: HL-60(TB) leukemia
NCI/ADR-RES ovarian = tested on: NCI/ADR-RES ovarian
CAKI-1 renal = tested on: CAKI-1 renal
TK-10 renal = tested on: TK-10 renal
MCF7 breast = tested on: MCF7 breast

SMILES | TGI (EKVX NSCLC) | TGI (UO-31 renal) | TGI (HOP-62 NSCLC) | TGI (ACHN renal) | TGI (786-0 renal) | TGI (HL-60(TB) leukemia) | TGI (NCI/ADR-RES ovarian) | TGI (CAKI-1 renal) | TGI (TK-10 renal) | TGI (MCF7 breast) | GI50 (EKVX NSCLC) | GI50 (UO-31 renal) | GI50 (HOP-62 NSCLC) | GI50 (ACHN renal) | GI50 (786-0 renal) | GI50 (HL-60(TB) leukemia) | GI50 (NCI/ADR-RES ovarian) | GI50 (CAKI-1 renal) | GI50 (MCF7 breast) | GI50 (TK-10 renal)
Cc1nc(-c2ccccc2)c(Cc2ccccc2O)c(=O)[nH]1 | > 100 µM | > 100 µM | > 100 µM | > 100 µM | > 100 µM | > 100 µM | > 100 µM | > 100 µM | > 100 µM | > 100 µM | – | – | – | – | – | – | – | – | – | –
COc1cccc(C2C3=C(COC3=O)N(CCO)c3cc(OC)ccc32)c1 (stereo not drawn) | > 100 µM | > 100 µM | > 100 µM | > 100 µM | > 29.6 µM | > 100 µM | – | > 100 µM | > 100 µM | > 100 µM | 22.6 µM | 0.187 µM | 0.124 µM | 0.23 µM | 0.148 µM | 0.276 µM | 0.0908 µM | 0.768 µM | 0.0348 µM | –
CCC1C(=O)OCc2c1cc1n(c2=O)Cc2cc3ccccc3nc2-1 (stereo not drawn) | > 100 µM | 11.7 µM | 25.5 µM | > 100 µM | 27.3 µM | > 36.2 µM | > 64.7 µM | 16.3 µM | > 100 µM | > 48.6 µM | – | – | – | – | – | – | – | – | – | –
COc1cc(-n2cc(-c3ccc(F)cc3)nc2SCc2ccccc2)cc(OC)c1OC | > 100 µM | > 100 µM | > 100 µM | > 100 µM | > 100 µM | > 100 µM | > 100 µM | > 100 µM | > 100 µM | > 100 µM | > 100 µM | 9.66 µM | > 100 µM | > 100 µM | > 100 µM | > 100 µM | > 100 µM | > 100 µM | > 100 µM | > 100 µM
COc1cc2cc(C(=O)CCC(=O)O)sc2cc1OC | > 100 µM | > 100 µM | > 100 µM | > 100 µM | > 100 µM | > 100 µM | > 100 µM | > 100 µM | > 100 µM | > 100 µM | > 100 µM | > 100 µM | > 100 µM | > 100 µM | > 100 µM | 28.3 µM | > 100 µM | > 100 µM | > 100 µM | > 100 µM
COC(=O)C1=C(C)NC(C)=C(C(=O)OC)C1/C=C(\Cl)c1ccc(Cl)c(Cl)c1 | 24.9 µM | 27.1 µM | 29.8 µM | 25.5 µM | 30.8 µM | 38.4 µM | 30.8 µM | 27.2 µM | 30.3 µM | 33.5 µM | 10.7 µM | 13.9 µM | 16.3 µM | 12.8 µM | 17 µM | 11.9 µM | 16.4 µM | 13.7 µM | 11.4 µM | 14.8 µM
Oc1ccc(CN2CCC(N3CCOCC3)CC2)c2cccnc12 | > 100 µM | 63.8 µM | > 100 µM | > 100 µM | > 100 µM | 51 µM | > 100 µM | > 100 µM | > 100 µM | 76.8 µM | 36.6 µM | 14.7 µM | 42.7 µM | 25.1 µM | 42.2 µM | 22.7 µM | 29.2 µM | 29.2 µM | 22.7 µM | 62.4 µM
C=C(C)C1Cc2c(cc(OC)c3c(=O)c4cccc(O)c4oc23)O1 (stereo not drawn) | > 100 µM | 39 µM | 36.5 µM | 32.1 µM | 32.9 µM | > 100 µM | > 100 µM | 30.2 µM | 46.9 µM | 17.4 µM | – | – | – | – | – | – | – | – | – | –
CS(=O)(=O)OCC1OC(n2ccc(NC(=O)c3ccccc3)nc2=O)CC1OS(C)(=O)=O (stereo not drawn) | > 100 µM | – | > 100 µM | > 100 µM | > 100 µM | > 100 µM | > 100 µM | > 100 µM | > 100 µM | > 100 µM | – | – | – | – | – | – | – | – | – | –
O=C(Nc1ccc(F)cc1)Nc1ccccc1CNc1nc(Nc2ccc(OCCN3CCCC3)cc2)ncc1Cl | 9.82 µM | 1.49 µM | 4.21 µM | 3.15 µM | 1.77 µM | 2.31 µM | 10.4 µM | 9.25 µM | 6.8 µM | 4.75 µM | 2.22 µM | 0.742 µM | 1.39 µM | 1.26 µM | 0.92 µM | 1.07 µM | 2.59 µM | 2.87 µM | 1.37 µM | 1.77 µM
Nc1ccccc1-c1ccc([N+](=O)[O-])cc1 | > 100 µM | > 100 µM | > 100 µM | > 100 µM | > 100 µM | 26.1 µM | > 100 µM | > 100 µM | > 100 µM | > 100 µM | 8.58 µM | 5.07 µM | > 100 µM | 4.99 µM | 9.16 µM | 2.93 µM | 26.2 µM | 1.71 µM | 35 µM | 25.9 µM
CC/C(=C(/c1ccc(OCCN(C)C)cc1)c1ccc(OC(=O)CCC(=O)c2c(C)[nH]c(/C=C3\N=C(c4ccc[nH]4)C=C3OC)c2C)cc1)c1ccccc1 | – | 5.05 µM | 4.94 µM | 15.9 µM | 5.73 µM | 8.8 µM | 15.9 µM | 16 µM | 15.7 µM | 2.66 µM | – | 1.71 µM | 1.49 µM | 2.57 µM | 2.19 µM | 3.13 µM | 3.62 µM | 2.66 µM | < 0.0217 µM | 4.87 µM
CN(Cc1ccc(Cl)cc1)c1ccc(CO)c(Cl)c1 | 35.3 µM | 14.5 µM | 18.3 µM | 23.6 µM | 17 µM | 42.4 µM | 25.4 µM | 12 µM | 1.68 µM | 12.5 µM | 13.5 µM | 3.23 µM | 5.75 µM | 5.83 µM | 3.82 µM | 5.28 µM | 8 µM | 1.43 µM | 1.34 µM | 0.268 µM
Clc1ccc(/C=C/c2cc(N3CCOCC3)c3cc(Cl)c(Cl)cc3n2)cc1 | – | > 45.7 µM | > 100 µM | > 100 µM | > 100 µM | > 100 µM | > 100 µM | > 100 µM | > 100 µM | > 100 µM | – | 0.71 µM | > 100 µM | > 100 µM | 1.37 µM | 0.339 µM | > 100 µM | > 100 µM | > 100 µM | > 100 µM
